Experimental data: patent US10766908B2, “Calcium L-lactate frameworks as naturally degradable carriers” (priority 2017, dated 2020)

Assay: Slow release of cis-1,3-dichloropropene under air flow, sample weight monitored by thermogravimetric instrument
Assay type: physicochemical
Details: air flow of 1.0 cm^3 min^−1, 25° C.
Experimental: Here we present the use of MOF-1201 for this purpose Fumigant cis-1,3-dichloropropene has been chosen as an example. Static adsorption isotherm of cis-1,3-dichloropropene in MOF-1201 at 25° C. is shown in FIG. 3c, displaying a sharp uptake of 1.4 mmol g^−1 (13 wt %) in low partial pressure range (P/P0=0.1), attributed to adsorption within the micropores. […] In contrast, the cis-1,3-dichloropropene encapsulated in MOF-1201 released in a much slower manner, with 80% of the total (10.5 wt %) released in 100,000 min g^−1, corresponding to 100 times slower compared with liquid cis-1,3-dichloropropene under the same conditions.
Slow release experiments were carried out using the TA Q500 thermal analysis system under constant air flow rate of 1 cm^3 min ^−1.

Cl/C=C\CCl [liquid cis-1,3-dichloropropene, cis-1,3-dichloropropene]
time for 80% of the total weight to be released/evaporated: ≤ 1,000 min g^−1
